Test results: BigSolDB 2.1

COc1cc(C=O)ccc1O
solubility (mole fraction)
Details | 293.15 K | 298.15 K | 303.15 K | 308.15 K | 313.15 K | 318.15 K | 323.15 K
in ethanol | 0.0713 | 0.0779 | 0.0841 | 0.0926 | 0.105 | 0.118 | 0.141
in water | 0.00116 | 0.00141 | 0.00179 | 0.00202 | 0.00234 | 0.00267 | 0.00298
